Test results reported in patent publication US20050261164A1, “Remedy for urinary frequency and urinary incontinence” (FUJISAWA PHARMACEUTICAL CO., LTD., priority 2002, published 2005).
Structures can show the parent of a compound that is named as a salt.

Tested on: rhythmic bladder contraction, male SD rats
Test: rhythmic bladder contraction model of a rat (frequent urination model)
Type: in vivo
Conditions: urethane-anesthetized male SD rats, intravenous, 0 to 10 minutes after the administration
Method: Male SD rats (7 to 10 weeks old, Japan SLC) were anesthetized with urethane (1 to 1.2 g/kg, intraperitoneal administration) and their lower abdomen were opened along the midline. After performing a small dissection at the apex of the bladder, a cannula (Hibiki, size 5) attached with a balloon of about 1 ml volume was inserted into the bladder. A cannula for drug administration (PE50, Becton Dickinson) was inserted into the femoral vein. The cannula for measuring intravesical pressure was connected to a pressure transducer attached with a three-way cock and water was injected into the balloon from a free opening of the three-way cock to cause rhythmic bladder contraction. The intravesical pressure at that time was recorded by a thermal recorder (Recti-Horiz8K, NEC Sanei) via an amplifier (AP-601G, Nihon Kohden). The bladder contractile frequency and force were measured every 10 minutes before the administration of a test compound and for 0 to 10 and 10 to 20 minutes after the administration. Statistical analysis was performed using randomized block analysis of variance and Dunnett's multiple comparison with respect to the measurement values obtained before the administration.

Q: Which results are given for `CC(C)c1ccc(C(=O)NC(=N)N)cc1S(C)(=O)=O.CS(=O)(=O)O` [test compound 1, 4-isopropyl-3-methylsulfonylbenzoyl guanidine methanesulfonate]?
A: effect on bladder contractile force (3.2 mg/kg): without significantly affecting; bladder contractile frequency, % of the value obtained before the administration (3.2 mg/kg, p<0.01): 25%

Q: Which results are given for “(2,3-dihydro-9-methanesulfonyl-1-benzoxepin-4-carbonyl)guanidine dihydrochloride [test compound 3]”?
A: effect on bladder contractile force (1 mg/kg): without significantly affecting; bladder contractile frequency, % of the value obtained before the administration (1 mg/kg, p<0.05): 41%

Q: With `CN(C)CCNC(=O)c1cc(C(=O)N=C(N)N)cc(-c2cc(Cl)sc2Cl)c1` [test compound 2, [5-(2,5-dichlorothiophene-3-yl)-3-[(2-dimethylaminoethyl)carbamoyl]benzoyl]guanidine dihydrochloride] as the compound, how does the “effect on bladder contractile force” value (1 mg/kg) read?
A: Its value is “without significantly affecting”.

Q: What about the “bladder contractile frequency, % of the value obtained before the administration” value (1 mg/kg, p<0.05) of the same compound?
A: The value was 22%.
